In patent US20110045097A1, “SOLID PHARMACEUTICAL COMPOSITION COMPRISING IRBESARTAN” (KRKA, d.d. Novo mesto, priority 2006, published 2011):
Counter-ions that a name gives are not always drawn.

How the values were obtained:
[1] = as described in WO 05/025566; cited from earlier work
[2] = Solubility in dissolution media / solvents; assay type: physicochemical; settings: 0.01 M HCl or simulated gastric juice (pH=1.2)
Procedure: WO 05/025566 is directed to irbesartan-containing oral pharmaceutical formulations having improved dissolution profiles, and especially dissolution of 80% or more 15 minutes after dosing and of 90% or more 30 minutes after dosing.

| Solubility as compared to the free irbesartan [2] | SMILES | Solubility in alcohol and CH2Cl2 [1] | Solubility in water [1] |
| --- | --- | --- | --- |
| – | CCCCC1=NC2(CCCC2)C(=O)N1Cc1ccc(-c2ccccc2-c2nnn[nH]2)cc1 [irbesartan, 2-Butyl-3-[[2′-(1H-tetrazol-5-yl) [1,1′-biphenyl]-4-yl]methyl]-1,3-diazaspiro[4,4]-non-1-en-4-one] | slightly soluble | insoluble |
| higher | CCCCC1=NC2(CCCC2)C(=O)N1Cc1ccc(-c2ccccc2-c2nnn[nH]2)cc1 [irbesartan-HCl, irbesartan hydrochloride] | – | – |
